From patent publication US20090275727A1, “Peptide turn mimetics” (MIMETICA PTY LIMITED, priority 1998, published 2009)
Read-outs that look alike come from different tables or passages of the source. Where a SMILES comes first, the peptide text is derived from it.

Assays:
[1] = Variable temperature CD, thermal denaturation of secondary structure; assay type: physicochemical
Protocol: CD experiments were performed on a Jasco Model J-810 spectropolarimeter, which was routinely calibrated with (1S)-(+)-10-camphorsulfonic acid at a concentration of 0.06% (w/v). Experiments were performed at 25° C. using a 0.1 cm cell, a scan speed of 10 nm/min from 260 to 180 nm, with a resolution of 1 nm and a response time of 0.25 s. The spectra were averaged over 5 scans, baseline subtracted from the corresponding blank conditions, and smoothed using the Savitsky-Golay smoothing algorithm (Savitsky, A. and Golay, M. J. E., 1964, Anal. Chem, 36, 1627-1639) to reduce noise. The samples were dissolved in 10 mM phosphate buffer, measured as pH 7.4, and when required the appropriate volume of TFE was added to adjust to 30% TFE. The concentration of the samples of peptides incorporating Helix Mimetic A (galanin 1-16 analogs) were determined using the Beer-Lambert Law by measuring the absorbance of the samples at 280 nm and using a molar extinction co-efficient of ε280=6620 M^−1cm^−1 (ε280 of Galanin 1-30, contains same number of Trp and Tyr as Galanin 1-16). The concentration of the samples of peptides incorporating Helix Mimetic B (Temporin A analogs) samples and the pentapeptide 13-membered ring Helix Mimetic A and B samples were determined by quantitative RP-HPLC against a standard of known concentration. All samples were between 40-200 μM, and CD spectra were recorded at a range of concentrations to check that sample aggregation was not occurring. Raw CD data was recorded in raw ellipticity units and converted to mean ellipticity per mole using the equation [θ]=θ/(10×c×l), where c is the sample concentration (M) and l is the cell path length (cm). Data was not converted to mean peptide molar ellipticity per residue as for compounds containing the covalent ethyl-bridge hydrogen bond replacement it is unclear how many “natural” peptide units to count in these calculations. Variable temperature CD experiments were carried using a CDF-426/L Peltier type CD/Fluorescence simultaneous measurement attachment, and samples were equilibrated for 10 min once the desired temperature was reached.
CD spectroscopy (as outlined in Example K) was conducted on the Galanin(1-16) reference linear peptide 231 and the Galanin(1-16) helix mimetics 232a and 232b in 10 mM phosphate buffer (pH 7.4) and in 10 mM phosphate buffer with 30% TFE added (see FIG. 8). […] The CD spectra of […] in both buffer and buffer with TFE. […] Further CD experiments examined the thermal denaturation secondary structure stability of Gal(1-16) 231 and (S)-Gal(1-16) helix mimetic 232b were investigated by thermal denaturation experiments (FIG. 9). […]

[2] = Rat plasma stability of galanin peptides (LC/MS); assay type: in vitro ADME; settings: for remaining at 4 h, 500 ng/mL / remaining at 2 min, 500 ng/mL: male, Sprague Dawley
Protocol: Rat plasma was obtained freshly from male Sprague Dawley rats. The stock solutions for the samples Galanin(1-16) Linear Reference Peptide 231, Galanin(1-16) Analog Incorporating (R)-Helix Pentapeptide Mimetic A 232a and Galanin(1-16) Analog Incorporating (S)-Helix Pentapeptide Mimetic A 232b were prepared in 1:1 v:v acetonitrile/water at a concentration of 1 mg/mL. This stock solution was further diluted using 1:1 v:v acetonitrile/water to give a spiking solution with a nominal concentration of 50 μg/mL. For each compound, an aliquot (1485 μL) of rat plasma (maintained at 37° C.) was spiked with 15 μL of the spiking stock to give a nominal plasma concentration of 500 ng/mL. […] Samples were quenched by snap freezing in dry-ice. The concentration of the parent compound (Gal 231, Gal R 232a, Gal S 232b) was determined by LC/MS on a Micromass Quattro Premier triple-quadrupole instrument. The percentage of the parent compound remaining at each time point was calculated relative to the concentrations observed in the spiking control samples.

[3] = biological target: T1, Galanin GAL2 (Homo sapiens, UniProt O43603); test: Galanin radioligand binding competitive assay, GAL2 (125I galanin human, recombinant CHO-K1 cells); settings: 0.02 nM 125I Galanin (human); for inhibition at 0.1 µM: 100 nM peptide, read-out: GAL2 % inhib at 100 nM; for inhibition at 1 µM: 1 1000 nM peptide (so in the source), read-out: GAL2 % inhib at 1 1000 nM
T1 construct: expressed in transfected cells; host or cells: CHO-K1
T1 sequence (O43603 1-387): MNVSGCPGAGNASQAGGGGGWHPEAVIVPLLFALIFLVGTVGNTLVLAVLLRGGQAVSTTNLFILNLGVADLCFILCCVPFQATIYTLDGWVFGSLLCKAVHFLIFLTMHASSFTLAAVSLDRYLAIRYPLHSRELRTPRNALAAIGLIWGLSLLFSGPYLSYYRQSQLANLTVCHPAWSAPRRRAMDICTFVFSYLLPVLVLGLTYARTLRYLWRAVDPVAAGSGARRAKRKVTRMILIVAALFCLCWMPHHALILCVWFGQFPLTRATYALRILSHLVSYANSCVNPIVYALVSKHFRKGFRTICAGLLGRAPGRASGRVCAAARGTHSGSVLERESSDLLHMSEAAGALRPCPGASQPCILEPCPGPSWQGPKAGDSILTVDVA
Protocol: (§1) Galanin(1-16) Linear Reference Peptide 231, Galanin(1-16) Analog Incorporating (R)-Helix Pentapeptide Mimetic A 232a and Galanin(1-16) Analog Incorporating (S)-Helix Pentapeptide Mimetic A 232b were tested for binding affinity to the Galanin-1 and Galanin-2 receptors using a radioligand binding competitive assay (Heuillet E, Bouaiche Z, Menager J, Dugay P, Munoz N, Dubois H, Amiranoff B, Crespo A, Lavayre J, Blanchard J C, Doble A; Eur J. Pharmacol., 1994, 269, 139-147. Bloomquist B T, Beauchamp M R, Zhelnin L, Brown S E, Biochem Biophys Res Comm., 1998, 243, 474-479.) Human recombinant HEK-293 cells were used as the source of Galanin GAL1, and samples tested against competitive binding with 0.012 nM ^125I Galanin (porcine). DMSO was used as the vehicle, and the incubation buffer consisted of 10 mM HEPES-NaOH, pH 7.4, 1 mM EDTA, 0.5% BSA, 0.01% Bacitracin. Human recombinant CHO-K1 cells were used as the source of Galanin GAL2, and samples tested against competitive binding with 0.02 nM ^125I Galanin (human).

[4] = biological target: T2, Galanin GAL1 (Homo sapiens, UniProt P47211); test: Galanin radioligand binding competitive assay, GAL1 (125I galanin porcine, recombinant HEK-293 cells); settings: 0.012 nM 125I Galanin (porcine), human recombinant HEK-293; for inhibition at 0.01 µM: 10 nM peptide, read-out: GAL1 % inhib at 10 nM; for inhibition at 0.1 µM: 100 nM peptide, read-out: GAL1 % inhib at 100 nM
T2 construct: expressed in transfected cells; host or cells: HEK-293
T2 sequence (P47211 1-349): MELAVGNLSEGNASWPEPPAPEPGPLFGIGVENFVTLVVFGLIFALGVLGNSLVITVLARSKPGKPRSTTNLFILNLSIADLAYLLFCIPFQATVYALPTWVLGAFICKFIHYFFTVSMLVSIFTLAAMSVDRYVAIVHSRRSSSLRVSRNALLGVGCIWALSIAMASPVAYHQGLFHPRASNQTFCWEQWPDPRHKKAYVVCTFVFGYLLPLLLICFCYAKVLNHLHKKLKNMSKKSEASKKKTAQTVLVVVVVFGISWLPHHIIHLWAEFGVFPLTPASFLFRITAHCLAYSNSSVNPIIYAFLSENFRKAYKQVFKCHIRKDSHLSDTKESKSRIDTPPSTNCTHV
Protocol: as §1

[5] = Solubility in water noted when preparing the NMR sample; assay type: physicochemical; settings: NMR run in 1:9 d3-TFE:H2O instead
Protocol: To a solution of Ac-GY(tBu)LLG-OMe 229 (58 mg, 0.09 mmol) in dichloromethane (2 mL) was added TFA (2 mL) and the solution stirred at rt for 1 h. The volatiles were removed under reduced pressure, and the residue dissolved in acetonitrile (1 mL) and water (1 mL). This solution was purified by preparative HPLC, to give the purified peptide 230 (12.6 mg) as a white solid. [M+H]^+=578.8; Analytical HPLC (0-40% B over 40 min, mL/min, 214 nm): tR=25.51 min; ^1H NMR, 600 MHz, 1:9 d3-TFE:H2O. Consistent with structure.

[6] = pH 7.4, 30% TFE in phosphate buffer, 5-75° C.

For `CC(C)C[C@H](NC(=O)[C@H](CC(C)C)NC(=O)[C@H](Cc1ccc(O)cc1)NC(=O)CNC(=O)[C@H](C)NC(=O)[C@H](CO)NC(=O)[C@H](CC(N)=O)NC(=O)[C@H](CC(C)C)NC(=O)[C@@H](NC(=O)[C@H](Cc1c[nH]c2ccccc12)NC(=O)CN)[C@@H](C)O)C(=O)NCC(=O)N1CCC[C@H]1C(=O)N[C@@H](CC1C=NC=N1)C(=O)N[C@@H](C)C(=O)N[C@H](C(N)=O)C(C)C` (stereo partly drawn) [Gal (1-16) 231, GWTLNSAGYLLGPHAV-NH2, reference compound], the “Thermal stability of secondary structure (variable temperature CD)” value (“Thermal stability of secondary structure” below) [1, 6] was “decreased peptide secondary structure with increased temperature”, the remaining at 4 h, 500 ng/mL ([2]; rat plasma, 4° C., 240 min, read-out: % Compound remaining at 4° C.) was 6.2% and the remaining at 2 min, 500 ng/mL ([2]; rat plasma, 37° C., 2 min, nominal 500 ng/mL, read-out: % Compound remaining at 37° C.) was 30.2%. The inhibition at 0.1 µM [3] was 92%, the inhibition at 1 µM [3] was 101% and the inhibition at 0.01 µM [4] was 85%. For the same compound, the inhibition at 0.1 µM [4] was 96%.

In the case of `CC[C@H](C)[C@H](NC(=O)[C@H](CC(C)C)NC(=O)C1CCCN1C(=O)[C@H](CC(C)C)NC(=O)[C@@H](N)Cc1ccccc1)C(=O)NCC(=O)N[C@@H](CCCNC(=N)N)C(=O)NC[C@@H]1CCN([C@@H](CC(C)C)C(=O)N[C@@H](CC(C)C)C(N)=O)C(=O)CNC(=O)[C@H](CO)NC(=O)[C@H](CC(C)C)N1` (stereo partly drawn) [Compound 235b], the “Thermal stability of secondary structure” value ([1]; pH 7.4) is reported as “remarkable thermal stability”.

With `COC(=O)CNC(=O)[C@H](CC(C)C)NC(=O)[C@H](CC(C)C)NC(=O)[C@H](Cc1ccc(O)cc1)NC(=O)CNC(C)=O` [Compound 230, Ac-GYLLG-OMe] (HELM PEPTIDE1{[ac].G.Y.L.L.G.[CO[*:1]]}$$$$V2.0) the “Solubility in H2O” value [5] was “not soluble in H2O”.

For `CC(C)C[C@@H]1NC(=O)[C@H](Cc2ccc(O)cc2)N[C@@H](CNC(=O)[C@H](C)NC(=O)[C@H](CO)NC(=O)[C@H](CC(N)=O)NC(=O)[C@H](CC(C)C)NC(=O)[C@@H](NC(=O)[C@H](Cc2c[nH]c3ccccc23)NC(=O)CN)[C@@H](C)O)CCN(CC(=O)N2CCC[C@H]2C(=O)N[C@@H](CC2C=NC=N2)C(=O)N[C@@H](C)C(=O)N[C@H](C(N)=O)C(C)C)C(=O)[C@H](CC(C)C)NC1=O` (stereo partly drawn) [Gal R 232a], the “Time after spiking until concentration is below the limit of quantitation” value [2] was ≤ 30 min, the remaining at 2 min, 500 ng/mL ([2]; rat, plasma) was 50% and the “% Compound remaining at 4° C.” value ([2]; rat, plasma, 4 h) was 31.3%. The “Percent remaining at end of 240 min incubation compared with 10 (linear Gal(1-16))” value ([2]; rat, plasma, 4 h) was “significantly higher”, the inhibition at 0.1 µM [3] was 6% and the inhibition at 1 µM [3] was 36%. For the same compound, the inhibition at 0.01 µM [4] was 8% and the inhibition at 0.1 µM [4] was 37%.

In the case of `CC(C)C[C@@H]1NC(=O)[C@H](Cc2ccc(O)cc2)N[C@H](CNC(=O)[C@H](C)NC(=O)[C@H](CO)NC(=O)[C@H](CC(N)=O)NC(=O)[C@H](CC(C)C)NC(=O)[C@@H](NC(=O)[C@H](Cc2c[nH]c3ccccc23)NC(=O)CN)[C@@H](C)O)CCN(CC(=O)N2CCC[C@H]2C(=O)N[C@@H](CC2C=NC=N2)C(=O)N[C@@H](C)C(=O)N[C@H](C(N)=O)C(C)C)C(=O)[C@H](CC(C)C)NC1=O` (stereo partly drawn) [Gal S 232b], the “Thermal stability of secondary structure” value ([1]; pH 7.4) is reported as “excellent structural stability at elevated temperatures”, the “Time after spiking until concentration is below the limit of quantitation” value [2] is reported as ≤ 30 min and the remaining at 2 min, 500 ng/mL ([2]; rat, plasma) is reported as 44.8%. For the same compound, the remaining at 4 h, 500 ng/mL ([2]; rat, plasma) was 31.3%, the “Percent remaining at end of 240 min incubation compared with 10 (linear Gal(1-16))” value ([2]; rat, plasma, 4 h) was “significantly higher” and the inhibition at 0.1 µM [3] was 2%. For the same compound, the inhibition at 1 µM [3] was 6%, the inhibition at 0.01 µM [4] was 2% and the inhibition at 0.1 µM [4] was 18%.

In the case of `CC[C@H](C)[C@H](NC(=O)[C@H](CC(C)C)NC(=O)C1CCCN1C(=O)[C@H](CC(C)C)NC(=O)[C@@H](N)Cc1ccccc1)C(=O)NCC(=O)N[C@@H](CCCNC(=N)N)C(=O)NCC(=O)N[C@@H](CC(C)C)C(=O)N[C@@H](CO)C(=O)NCC(=O)N[C@@H](CC(C)C)C(=O)N[C@@H](CC(C)C)C(N)=O` (stereo partly drawn) [Compound 234, FLPLIGRGLSGLL-NH2, reference compound], the “Thermal stability of secondary structure” value [1, 6] is reported as “increase in 222 nm absorbance as temperature increases, indicative of the helix unwinding”.
